Tests used:
[1] = test system: Herpes Simplex Virus type 2 strain G (No. VR-734 ATCC); assay: Antiviral activity, virus cytopathogenic action in Vero cells; format: cell-based; parameters: key: 0: CPA (cytopathogenic action) is not detected; 1: up to 25% virus-infected monolayer; from 25% to 50%; 3: from 50% to 75%; 4: from 75% to 100%; settings: 48 hours
Experimental: […] used in the study were used Herpes Simplex Virus type 1 (the Collection of Microorganisms at the Scientific Research Institute of Virology, strain EC), Herpes Simplex Virus type 2 strain G (No. VR-734 ATCC), and human cytomegalovirus strain AD169 (No. VR-538 ATCC). Herpes Simplex viruses type 1 and type 2 were cultured in Vero cells. The cells were incubated in MEM Eagle growth medium (MEM, BioloT, St-Petersburg, 1.3.3) supplemented with 10% fetal bovine serum (BioloT, St-Petersburg, 1.3.12) in Sanyo MCO-15AC gas-flow thermostat (37° C., 5% CO2) (Tokyo, Japan). A seed dose was 2×10^5 cells/ml in the starting inoculum or 2×10^4 cells/well. Herpes Simplex viruses were cultured under the same conditions in the MEM medium without serum (maintenance medium). Starting viral titers were 10^7 TCID50/ml.
For DMSO-soluble preparations, stock solutions were prepared in a concentration of 10 mM in DMSO. For water-soluble preparations, a stock solution prepared had the same concentration in the MEM medium (Minimal Essential Medium) for cell cultures. To control cytotoxicity (see below), the stock solution was diluted in the medium to a concentration of 100 μM and ten-fold serial dilutions of the preparations were made in the MEM medium (for DMSO-soluble compounds—in the MEM medium comprising 3% DMSO). The following concentrations of the preparations were used in the study of […]: if toxicity was not found, the concentrations of 100 μM preparations were 100, 10 and 1 μM; if toxicity was detected, the concentrations of 100 μM preparations were 10, 1, and 0.1 μM. Acyclovir (10 μg/ml) was used for Herpes Simplex viruses of both types as a reference preparation to control the viral model validity.
To study antiviral activity, plate wells with a cell monolayer were added with the preparations in an amount of 0.1 ml/well. To compensate a reduction in the concentration of the preparations, which takes place in the following addition of viruses, twofold concentrations of compounds (i.e. 200, 20 and 2 or 20, 2 and 0.2 μM for […] concentrations of 100 μM preparations, respectively) were used, incubated for an hour and then were infected with the examined 0.1 ml/well viruses in doses 1, 10 and 100 TCID50 (50% tissue infectious dose).
The virus-specific cytogenic action was manifested in an increase in the size of cells, their rounding, and detachment from a substrate. These morphological characteristics served as their marked difference from the cells subjected to a toxic action of high concentrations of the examined preparations. The latter acquired spindle-like shape, lost contacts with neighboring cells of the monolayer, and their boundaries became more distinct.
Intensity of the virus-specific changes in the cells were semi-quantified using a 4-score system: 0—CPA (cytopathogenic action) is not detected; 1—up to 25% virus-infected monolayer; 2—from 25% to 50%; 3—from 50% to 75%; and 4—from 75% to 100%. The antiviral activity of a compound was evaluated according to their ability to reduce the manifestation of cytopathogenic action in the plate wells compared to the control values. Differences with the control values by 1 score and more were considered to be significant.

Escherichia coli 4300 = assay: Antibacterial specific activity, twofold dilutions, visual growth evaluation; format: cell-based; settings: E. coli 4300; 36° C., 24 hours
[2] = test system: Enterococcus faecalis No. 559; assay: as above; format: cell-based; settings: E. faecalis 559; 36° C., 24 hours
In short: (§1)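 Broth microdilution: twofold serial dilutions of compound in water or DMSO, each well inoculated at 5×10^5 CFU/ml, incubated 36° C. for 24 hours. MIC taken as the last dilution visibly suppressing growth versus compound-free growth control. S. aureus grown on Trypticase Soy Agar, E. faecalis on Columbia Agar.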

[3] = test system: Vancomycin-resistant Enterococcus faecium 569; assay: as above; format: cell-based; settings: Vancomycin-resistant E. faecium 569; 36° C., 24 hours
In short: as §1

[4] = test system: Staphylococcus aureus No. 5 (MRSA); assay: as above; format: cell-based; settings: St. aur No. 5 MRSA; 36° C., 24 hours
In short: as §1

[5] = test system: Staphylococcus aureus No. 100 KC; assay: as above; format: cell-based; settings: S. aureus 100 KC; 36° C., 24 hours
In short: as §1

[6] = test system: Staphylococcus aureus No. 25923 ATCC; assay: as above; format: cell-based; settings: S. aureus 25923; 36° C., 24 hours
In short: as §1

[7] = test system: Staphylococcus epidermidis No. 533; assay: as above; format: cell-based; settings: S. epidermis 533; 36° C., 24 hours
In short: as §1

[8] = HSV-2, virus dose 1, concentration 0.1 μM
[9] = HSV-2, virus dose 1, concentration 1 μM
[10] = HSV-2, virus dose 1, concentration 10 μM
[11] = HSV-2, virus dose 10, concentration 0.1 μM
[12] = HSV-2, virus dose 10, concentration 1 μM
[13] = HSV-2, virus dose 10, concentration 10 μM
[14] = HSV-2, virus dose 100, concentration 0.1 μM
[15] = HSV-2, virus dose 100, concentration 1 μM
[16] = HSV-2, virus dose 100, concentration 10 μM

| Compound | manifestation of the virus CPA [1, 8] | manifestation of the virus CPA [1, 9] | manifestation of the virus CPA [1, 10] | manifestation of the virus CPA [1, 11] | manifestation of the virus CPA [1, 12] | manifestation of the virus CPA [1, 13] | manifestation of the virus CPA [1, 14] | manifestation of the virus CPA [1, 15] | manifestation of the virus CPA [1, 16] | water solubility (Water solubility) | MIC (Escherichia coli 4300) | MIC [2] | MIC [3] | MIC [4] | MIC [5] | MIC [6] | MIC [7] |
| --- | --- | --- | --- | --- | --- | --- | --- | --- | --- | --- | --- | --- | --- | --- | --- | --- | --- |
| 6,7-bis-(Amide N^α-Glycyl)-Protohemin (IX) [IV] | 1 (up to 25% virus-infected monolayer) | 0.5 scores | 0^1 | 2 (from 25% to 50%) | 2 (from 25% to 50%) | 0^1 | 3 (from 50% to 75%) | 3 (from 50% to 75%) | 0^1 | water-insoluble | >50.0 µM | 0.39 µM | 50 µM | 3.12 µM | 0.39 µM | 0.39 µM | 1.56 µM |
| 6,7-bis-[(Diamide N^α-L-Arginyl)-L-glutamyl]-Protohemin (IX) | 1 (up to 25% virus-infected monolayer) | 0.5 scores | 0^1 | 2 (from 25% to 50%) | 2 (from 25% to 50%) | 1^1 (up to 25% virus-infected monolayer) | 3 (from 50% to 75%) | 3 (from 50% to 75%) | 3 (from 50% to 75%) | water-soluble | 16.6 µM | 3.12 µM | 6.25 µM |  | 0.78 µM | 1.56 µM | 0.78 µM |
| C=CC1=C(C)c2cc3[n-]c(cc4[n-]c(cc5nc(cc1n2)C(C)=C5C=C)c(C)c4CCC(=O)N[C@@H](CCCNC(=N)N)C(N)=O)c(CCC(=O)N[C@@H](CCCNC(=N)N)C(N)=O)c3C.[Cl-].[Fe+3] [II, 6,7-bis-(Amide N^α-Arginyl)-Protohemin (IX)] | 1 (up to 25% virus-infected monolayer) | 0.5 scores | 0^1 | 1.5 scores | 2 (from 25% to 50%) | 1^1 (up to 25% virus-infected monolayer) | 3 (from 50% to 75%) | 3 (from 50% to 75%) | 3 (from 50% to 75%) | water-soluble | 41.6 µM | 1.3 µM | 3.12 µM | 41 µM | 2.6 µM | 1.04 µM | 0.39 µM |
| C=CC1=C(C)c2cc3[n-]c(cc4[n-]c(cc5nc(cc1n2)C(C)=C5C=C)c(C)c4CCC(=O)N[C@@H](CO)C(N)=O)c(CCC(=O)N[C@@H](CO)C(N)=O)c3C.[Cl-].[Fe+3] [V, 6,7-bis-(Amide N^α-Seryl)-Protohemin (IX)] | 1 (up to 25% virus-infected monolayer) | 0.5 scores | 0^1 | 2 (from 25% to 50%) | 2 (from 25% to 50%) | 0^1 | 3 (from 50% to 75%) | 3 (from 50% to 75%) | 2^1 (from 25% to 50%) | water-insoluble | >50.0 µM | 25 µM | 25 µM | 1.56 µM | 0.52 µM | 0.78 µM | 1.56 µM |
| C=CC1=C(C)c2cc3[n-]c(cc4[n-]c(cc5nc(cc1n2)C(C)=C5C=C)c(C)c4CCC(=O)N[C@@H](CO)C(=O)O)c(CCC(=O)N[C@@H](CO)C(=O)O)c3C.[Cl-].[Fe+3] [VI, 6,7-bis-(N^α-Seryl]-Protohemin (IX)] | 1 (up to 25% virus-infected monolayer) | 1 (up to 25% virus-infected monolayer) | 0^1 | 2 (from 25% to 50%) | 2 (from 25% to 50%) | 0^1 | 3 (from 50% to 75%) | 3 (from 50% to 75%) | 2^1 (from 25% to 50%) |  | >50.0 µM | >50.0 µM | >50.0 µM | 0.78 µM | 5.21 µM | 12.5 µM | 3.12 µM |
